Publication PMC8688955 (Frontiers in Pharmacology, 2021)

How the values were obtained:
AMPAR = tested on: AMPAR; set-up: method as in Dudic and Reiner, 2019; conditions: ref Dudic and Reiner, 2019; cited from earlier work
CP-AMPARs = assay: Whole-cell patch-clamp of kainate-induced currents in isolated striatal giant interneurons; format: cell-based, Wistar rat; conditions: −80 mV; for CP-AMPARs % inhibition at 100 µM: 100 µM compound, currents induced by 100 µM kainate, mean ± SD, N = 5
Protocol: All experimental procedures were approved by the Animal Care and Use Committee of the I.M. Sechenov Institute of Evolutionary Physiology and Biochemistry of the Russian Academy of Sciences. Wistar rats (13–19 days old) were anesthetized with sevoflurane and then decapitated. Maximum effort was made to minimize the number of animals used. Brains were removed quickly and cooled to 2–4°C in an ice bath. […] Single neurons were freed from slices by vibrodissociation ([Vorobjev, 1991]). The antagonism of CP-AMPARs was studied on striatal giant interneurons ([Bernard et al., 1997]; [Gotz et al., 1997]), which were identified by their shape and size. […] The antagonism of CI-AMPARs was studied on pyramidal neurons from the CA1 area of the hippocampus.
(§1) Series resistance of about 20 MΩ was compensated by 70–80% and monitored during experiments. Currents were recorded using an EPC-8 amplifier (HEKA Electronics, Lambrecht, Germany), filtered at 5 kHz, sampled, and stored on a personal computer. Drugs were applied using the RSC-200 perfusion system (BioLogic Science Instruments, Claix, France) under computer control. The solution exchange time in the whole-cell mode was 50–60 ms. The extracellular solution contained (in mM) NaCl 143, KCl 5, MgCl2 2.0, CaCl2 2.5, D-glucose 18, and HEPES 10 (pH was adjusted to 7.3 with HCl). The pipette solution contained (in mM) CsF 100, CsCl 40, NaCl 5, CaCl2 0.5, EGTA 5, and HEPES 10 (pH was adjusted to 7.2 with CsOH). Experiments were performed at room temperature (22–24°C). […] Lamotrigine, topiramate, levetiracetam, felbamate, carbamazepine, tiagabin, vigabatrin, zonisamide, and gabapentin were purchased from Tocris Bioscience (Bristol, United Kingdom). Perampanel was from MedChemExpress (Stockholm, Sweden). Kinetics of transient processes of more than 20-ms duration was approximated by exponential functions. Experiments were performed at −80 mV holding voltage. All experimental data are presented as mean ± SD estimated from at least four experiments. Significance of the effects was tested with paired t test. Differences were considered significant at p < 0.05. 3D structures of compounds were calculated by the ZMM software (zmmsoft.ca).

CI-AMPARs = target: T1, CI-AMPARs (Rattus norvegicus, UniProt P19491, Q607R); assay: Whole-cell patch-clamp of kainate-induced currents in isolated hippocampal CA1 pyramidal neurons; format: cell-based, Wistar rat; conditions: currents induced by 100 µM kainate, −80 mV, mean ± SD, N = 5; for CI-AMPARs % inhibition at 100 µM: 100 µM compound; for inhibition at 100 µM: read-out: CI-AMPARs % inhibition at 100 µM, 100 µM compound
T1 construct: activity against native calcium-permeable AMPA receptors (CP-AMPARs) and calcium-impermeable AMPA receptors (CI-AMPARs); endogenous in cells; host or cells: acutely isolated pyramidal neurons from the CA1 area of Wistar rat hippocampal slices
T1 sequence (P19491 22-883 Q607R): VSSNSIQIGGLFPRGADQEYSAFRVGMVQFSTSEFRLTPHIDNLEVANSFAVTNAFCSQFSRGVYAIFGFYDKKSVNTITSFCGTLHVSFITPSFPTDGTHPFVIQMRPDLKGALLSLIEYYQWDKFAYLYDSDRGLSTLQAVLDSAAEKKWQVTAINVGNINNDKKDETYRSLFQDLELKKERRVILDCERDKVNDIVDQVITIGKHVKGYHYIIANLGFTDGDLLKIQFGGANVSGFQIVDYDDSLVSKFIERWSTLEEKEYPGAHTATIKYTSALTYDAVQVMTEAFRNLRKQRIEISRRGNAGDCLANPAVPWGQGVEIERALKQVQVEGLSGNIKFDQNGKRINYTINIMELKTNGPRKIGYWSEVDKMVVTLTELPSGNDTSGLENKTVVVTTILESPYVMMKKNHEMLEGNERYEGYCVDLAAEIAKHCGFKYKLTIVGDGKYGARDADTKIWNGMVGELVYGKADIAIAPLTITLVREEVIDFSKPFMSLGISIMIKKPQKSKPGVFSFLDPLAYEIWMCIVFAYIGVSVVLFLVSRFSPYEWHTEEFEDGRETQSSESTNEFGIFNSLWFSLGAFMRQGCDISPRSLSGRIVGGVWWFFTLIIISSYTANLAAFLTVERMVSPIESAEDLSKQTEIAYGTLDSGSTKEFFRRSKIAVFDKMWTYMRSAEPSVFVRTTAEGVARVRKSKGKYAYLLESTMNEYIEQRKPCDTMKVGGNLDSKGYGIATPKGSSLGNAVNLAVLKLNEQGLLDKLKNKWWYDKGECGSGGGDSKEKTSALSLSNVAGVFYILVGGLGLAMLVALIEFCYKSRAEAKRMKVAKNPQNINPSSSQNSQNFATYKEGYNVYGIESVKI
Protocol: All experimental procedures were approved by the Animal Care and Use Committee of the I.M. Sechenov Institute of Evolutionary Physiology and Biochemistry of the Russian Academy of Sciences. Wistar rats (13–19 days old) were anesthetized with sevoflurane and then decapitated. Maximum effort was made to minimize the number of animals used. Brains were removed quickly and cooled to 2–4°C in an ice bath. […] The antagonism of CI-AMPARs was studied on pyramidal neurons from the CA1 area of the hippocampus.
as §1, with “The extracellular solution contained (in mM) NaCl 143, KCl 5, MgCl2 2.0, CaCl2 2.5, D-glucose 18, and HEPES 10 (pH was adjusted to 7.3 with HCl).” left out

hGluA1-4 receptors = tested on: hGluA1-4 receptors; set-up: method as in Fukushima et al. (2020); conditions: ref Fukushima et al. (2020); cited from earlier work
[1] = tested on: postsynaptic AMPA receptors; set-up: method as in Lee et al., 2008; conditions: 30 and 100 µM lamotrigine; ref Lee et al., 2008; cited from earlier work
AMPA receptors = tested on: AMPA receptors; set-up: method as in Carunchio et al., 2007; conditions: 200 µM levetiracetam; ref Carunchio et al., 2007; cited from earlier work
[2] = tested on: AMPA and kainate-evoked Ca^2+ uptake; conditions: 30 and 100 µM topiramate; ref Poulsen et al., 2004; cited from earlier work

Structure (SMILES)	pH-dependence (AMPAR)	IC50 (CP-AMPARs; read-out: IC50 CP-AMPARs, kainate-induced currents, Hill equation)	CI-AMPARs % inhibition at 100 µM (CI-AMPARs)	inhibition at 100 µM (CI-AMPARs)	activity against hGluA1-4 receptors (hGluA1-4 receptors)	CP-AMPARs % inhibition at 100 µM (CP-AMPARs)	CP-AMPARs % inhibition at 100 µM (CP-AMPARs; listed as lamotrigine)	decrease of the amplitude of the currents induced by exogenously applied AMPA [1]	CI-AMPARs % inhibition at 100 µM (CI-AMPARs; listed as levetiracetam)	CP-AMPARs % inhibition at 100 µM (CP-AMPARs; listed as levetiracetam)	decrease of the amplitude of kainate-induced current (AMPA receptors)	CP-AMPARs % inhibition at 100 µM (CP-AMPARs; listed as topiramate)	inhibition of AMPA and kainate-evoked Ca^2+ uptake [2]
O=c1[nH]c2cc([N+](=O)[O-])c([N+](=O)[O-])cc2[nH]c1=O [DNQX]	Yes ^a	310 ± 60 nM											
Nc1nnc(-c2cccc(Cl)c2Cl)c(N)n1 [Lamotrigine]			14 ± 5%	≤ 20%	did not find significant activity	13 ± 3%	≤ 20%	10%					
CC[C@@H](C(N)=O)N1CCCC1=O [Levetiracetam]			6 ± 2%		did not find significant activity	9 ± 3%			≤ 20%	≤ 20%	about 26%		
CC1(C)O[C@@H]2[C@@H](CO[C@@]3(COS(N)(=O)=O)OC(C)(C)O[C@@H]23)O1 [Topiramate]			12 ± 2%	≤ 20%	did not find significant activity	14 ± 2%						≤ 20%	up to 60%
